Earlier results in patent US6815463B2, “Laulimalide derivatives” (Kosan Biosciences, Inc., priority 2001, dated 2004).

System: microtubules
Conditions: for stabilization of microtubules: similar to paclitaxel, Mooberry et al. 1999, WO 01/54689

Structure (SMILES) | potency as stabilizer of microtubule polymerization relative to laulimalide (comparison with laulimalide) | stabilization of microtubules
C=C1C[C@H](C)C[C@@H]2CC=C[C@@H](C/C=C\C(=O)O[C@H]3C[C@@H](O[C@H]3/C=C/[C@@H]3CC(C)=CCO3)[C@@H](O)[C@@H](O)C1)O2 [isolaulimalide] | less potent stabilizer of microtubule polymerization than laulimalide | potent stabilizers of microtubules
C=C1C[C@H](C)C[C@@H]2CC=C[C@@H](C/C=C\C(=O)O[C@H]([C@@H](O)/C=C/[C@@H]3CC(C)=CCO3)C[C@@H]3O[C@H]3[C@@H](O)C1)O2 [laulimalide, Laulimalide] |  | potent stabilizers of microtubules
